Experimental data taken from PubChem BioAssay (NCI).
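These data come from cells grown in 96-well plates and exposed to compound for 48 hours at five concentrations. At the TGI there is no net growth.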

Key:
Experiment in all cases: inhibition of tumour cell growth, NCI panel, 48 h
[1] = system: BT-549 breast
[2] = system: UO-31 renal
[3] = system: LOX IMVI melanoma
[4] = system: U251 CNS
[5] = system: HS 578T breast
[6] = system: RPMI-8226 leukemia
[7] = system: NCI-H460 lung
[8] = system: KM12 colon
[9] = system: SNB-19 CNS
[10] = system: CAKI-1 renal
[11] = system: K-562 leukemia
[12] = system: NCI/ADR-RES ovarian
[13] = system: SK-MEL-5 melanoma
[14] = system: OVCAR-3 ovarian
[15] = system: MALME-3M melanoma
[16] = system: COLO 205 colon
[17] = system: SR leukemia
[18] = system: M14 melanoma
[19] = system: MDA-N
[20] = system: NCI-H23 lung
[21] = system: UACC-257 melanoma
[22] = system: SF-539 CNS
[23] = system: HOP-92 NSCLC
[24] = system: SF-295 CNS
[25] = system: HCT-116 colon
[26] = system: CCRF-CEM leukemia
[27] = system: HCC-2998 colon
[28] = system: SNB-75 CNS
[29] = system: SF-268 CNS
[30] = system: HT29 colon
[31] = system: T-47D breast
[32] = system: ACHN renal
[33] = system: OVCAR-8 ovarian
[34] = system: NCI-H226 lung
[35] = system: UACC-62 melanoma
[36] = system: PC-3 prostate
[37] = system: A549 NSCLC
[38] = system: MOLT-4 leukemia
[39] = system: TK-10 renal
[40] = system: SK-MEL-2 melanoma
[41] = system: MDA-MB-435
[42] = system: HOP-62 NSCLC
[43] = system: HL-60(TB) leukemia
[44] = system: MCF7 breast
[45] = system: OVCAR-5 ovarian
[46] = system: SK-OV-3 ovarian
[47] = system: 786-0 renal
[48] = system: SW-620 colon
[49] = system: MDA-MB-231 breast
[50] = system: NCI-H522 lung
[51] = system: HCT-15 colon
[52] = system: SN12C renal
[53] = system: EKVX NSCLC
[54] = system: A498 renal
[55] = system: DU-145 prostate
[56] = system: IGROV1 ovarian
[57] = system: OVCAR-4 ovarian
[58] = system: RXF 393 renal
[59] = system: SK-MEL-28 melanoma

Measured: TGI

CN1CCN(CC(=O)N2CCCn3c2nc2ccccc2c3=O)CC1
not listed: [58] | [59]
> 100 µM: all other assays above

CC(C)c1cc2c(c(O)c1O)[C@@]1(C)CCCC(C)(C)C1=C(O)C2
16.1 µM: [30]
3.36 µM: [15]
1.89 µM: [22]
24.2 µM: [39]
2.12 µM: [26]
4.22 µM: [1]
3.56 µM: [53]
4.54 µM: [4]
2.15 µM: [6]
5.84 µM: [29]
8.69 µM: [59]
4.38 µM: [24]
2.32 µM: [13] | [23]
5.26 µM: [14]
6.8 µM: [20]
5.73 µM: [37]
3.21 µM: [17]
3.06 µM: [50]
2.76 µM: [27]
2.85 µM: [44]
2.79 µM: [56]
5.89 µM: [7]
4.13 µM: [11]
6.99 µM: [33]
2.77 µM: [41]
8.06 µM: [16]
3.19 µM: [54]
2.96 µM: [58]
5.4 µM: [48]
3.37 µM: [21]
2.65 µM: [40]
9.32 µM: [9]
3.14 µM: [3]
2.56 µM: [28]
5.78 µM: [8]
11.8 µM: [47]
3.51 µM: [36]
4.55 µM: [57]
13.4 µM: [5] | [18] | [42]
2 µM: [12]
3.27 µM: [43]
3.95 µM: [2]
2.84 µM: [10]
6.77 µM: [19] | [51]
5.39 µM: [32]
9.03 µM: [45]
20 µM: [31]
2.99 µM: [38]
not listed: [46]
> 50 µM: all other assays above

Cc1n[nH]c(=O)n1/N=C/c1ccc([N+](=O)[O-])cc1
not listed: [9] | [18] | [46] | [56]
> 100 µM: all other assays above
